Literature values as cited in US11582972B2, “Controlled-diffusion semiochemical composition” (MELCHIOR MATERIAL AND LIFE SCIENCE FRANCE, priority 2017, dated 2023).

System: Metamasius hemipterus sericeus
Conditions: for attractiveness: high doses: ethyl acetate >800 mg/d, ethyl propionate >300 mg/d, ethyl butyrate >100 mg/d

For `CCOC(=O)CC` [ethyl propionate], the attractiveness is listed as “as attractive as 250 g of sugarcane”.
For `CCOC(C)=O` [ethyl acetate], the “synergistic effect with pheromones” value (dose >650 mg/d, in the field) is listed as “synergistic effect with pheromones equivalent to 250 g of sugarcane” and the attractiveness is listed as “as attractive as 250 g of sugarcane”.
For `CCCC(=O)OCC` [ethyl butyrate], the attractiveness is listed as “as attractive as 250 g of sugarcane”.
